# Reference: patent publication US10272039B2 (The United States of America, as represented by the …, priority 2014, dated 2019)
# Experiments:
# [1] = trial patients; after ingestion of hydroxycarbamide vs after sodium nitrite application
# Protocol: Plasma and whole blood nitrite and nitrate concentrations were collected at the following time points: pre-dose; immediately after application; 5, 10, 15, 20, 30, 45, 60, and 90 min post-dose; 2, 3, 6, 8, 12, 24, and 48 h post-dose; then weekly and at the end of the study. All processing was done at the bedside. Plasma and whole blood nitrite and nitrate were measured with a gas-phase chemiluminescence nitric oxide analyzer, as previously reported (Gladwin et al., Proc Natl Acad Sci USA.; 97: 11482-11487, 2000).
# Therefore, we did a subsequent pharmacokinetic analysis was carried out with respect to the time and dose of hydroxycarbamide intake instead of nitrite cream administration, using a population approach. A two-compartment model was fitted with first-order absorption and elimination to whole blood nitrite concentrations using first-order conditional estimation method by Phoenix NLME 1.2 (Certara USA Inc., St Louis, Mo., USA), and an exponential model was used to describe the inter-individual variability and a mixed-ratio model to describe the intra-individual variability (FIG. 7C).
# [2] = tested on: chronic leg ulcers in patients with sickle cell anaemia; conditions: concomitant use in 9 of 18 trial patients; p=0.96
# [3] = tested on: sickle cell disease leg ulcers; conditions: published randomised trials; RGD peptide topical, arginine butyrate intravenous; cited from earlier work
Whole blood nitrite concentrations [1],Compound,Association with ulcer healing [2],Wound closure [3]
increased,NC(=O)NO [hydroxycarbamide],not associated with ulcer healing,
,Arg-Gly-Asp (RGD) peptide,,statistically significant increases in wound closure
,arginine butyrate,,statistically significant increases in wound closure
